# Source: ChEMBL document CHEMBL3414448, “Advances in the discovery of novel antimicrobials targeting the assembly of bacterial cell division protein FtsZ” (Eur J Med Chem, 2015)
# How the values were obtained:
# [1] = target: T1, Cell division protein FtsZ (Bacillus subtilis (strain 168)) (UniProt P17865); experiment: Inhibition of Bacillus subtilis FtsZ GTPase activity; settings: concentration not given here
# T1 sequence (whole entry): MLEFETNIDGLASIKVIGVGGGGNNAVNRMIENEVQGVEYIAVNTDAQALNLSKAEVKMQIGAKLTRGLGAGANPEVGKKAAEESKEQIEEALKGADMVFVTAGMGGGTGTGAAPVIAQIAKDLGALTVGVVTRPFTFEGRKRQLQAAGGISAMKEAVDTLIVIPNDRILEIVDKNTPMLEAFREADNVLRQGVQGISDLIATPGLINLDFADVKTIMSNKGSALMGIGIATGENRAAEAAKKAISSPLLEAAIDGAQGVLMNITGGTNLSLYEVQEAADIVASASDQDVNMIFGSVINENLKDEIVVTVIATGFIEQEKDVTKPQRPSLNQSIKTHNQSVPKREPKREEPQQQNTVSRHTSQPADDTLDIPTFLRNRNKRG
# [2] = target: T2, Cell division protein FtsZ (Escherichia coli K-12) (UniProt P0A9A6); experiment: Inhibition of FtsZ in Escherichia coli assessed as Z-ring containing cells level at 4 and 8 ug/ml (reference value: 88%); parameters: scale not given: the % may be the effect or the level left
# T2 sequence (whole entry): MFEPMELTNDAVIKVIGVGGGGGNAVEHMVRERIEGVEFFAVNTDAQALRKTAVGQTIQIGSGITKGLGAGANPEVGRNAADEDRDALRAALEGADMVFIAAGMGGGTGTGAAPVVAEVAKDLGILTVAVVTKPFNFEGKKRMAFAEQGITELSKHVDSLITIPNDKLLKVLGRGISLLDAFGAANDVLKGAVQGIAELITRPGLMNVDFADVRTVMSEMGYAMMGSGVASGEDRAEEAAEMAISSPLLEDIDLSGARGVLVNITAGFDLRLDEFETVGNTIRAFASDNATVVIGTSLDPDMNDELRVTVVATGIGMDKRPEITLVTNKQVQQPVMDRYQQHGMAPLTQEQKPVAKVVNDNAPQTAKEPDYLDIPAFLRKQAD
# [3] = target: T2, Cell division protein FtsZ (Escherichia coli K-12); experiment: Inhibition of Escherichia coli FtsZ assembly
# [4] = Inhibition of FtsZ (unknown origin) assessed as reduction in frequency of Z-rings per unit cell length; settings: concentration not given here
# [5] = target: T3, Cell division protein FtsZ (Staphylococcus aureus) (UniProt P0A031); experiment: Inhibition of FtsZ in methicillin-resistant Staphylococcus aureus assessed as reduction in methicillin MIC (reference value: 32 ug/ml)
# T3 sequence (whole entry): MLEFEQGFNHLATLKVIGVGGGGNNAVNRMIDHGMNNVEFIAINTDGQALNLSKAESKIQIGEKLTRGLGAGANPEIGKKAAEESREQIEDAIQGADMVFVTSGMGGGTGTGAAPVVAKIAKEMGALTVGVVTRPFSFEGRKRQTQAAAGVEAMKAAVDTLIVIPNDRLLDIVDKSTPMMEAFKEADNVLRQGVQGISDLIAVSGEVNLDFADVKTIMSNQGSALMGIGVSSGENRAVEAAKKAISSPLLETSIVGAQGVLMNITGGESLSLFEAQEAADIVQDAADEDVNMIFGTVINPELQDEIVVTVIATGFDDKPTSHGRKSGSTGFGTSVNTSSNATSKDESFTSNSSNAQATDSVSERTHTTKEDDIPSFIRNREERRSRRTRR
# [6] = Activation of FtsZ (unknown origin) assessed as increase in enzyme GTPase activity at 30 uM
compound,measurement,setting,value
O=C(Oc1cc(OC(=O)c2cc(O)cc(O)c2)c2ccccc2c1)c1cc(O)c(O)c(O)c1,inhibition,[1],< 20%
NCC[C@H](O)C(=O)N[C@@H]1C[C@H](N)[C@@H](O[C@H]2O[C@H](CN)[C@@H](O)[C@H](O)[C@H]2O)[C@H](O)[C@H]1O[C@H]1O[C@H](CO)[C@@H](O)[C@H](N)[C@H]1O,Activity,[2],35%
COc1ccc(/N=C/c2ccc(OC(C)=O)c(OC)c2[N+](=O)[O-])cc1,ID50,[3],2.1 µM
COc1c(OC(C)=O)ccc(/C=N/c2c(C(C)C)cccc2C(C)C)c1[N+](=O)[O-],ID50,[3],7.6 µM
COc1ccc2cc3[n+](cc2c1OC)CCc1cc2c(cc1-3)OCO2,inhibition,[4],50%
O=C(Oc1cc(OC(=O)c2ccc(O)c(Cl)c2)c2ccccc2c1)c1ccc(O)c(Cl)c1,inhibition,[1],< 20%
CC(C)c1c(O)ccc2c1CC[C@H]1C(C)(C)CCC[C@]21C,MIC,[5],4 µg/mL
COc1cc(/C=C/C(=O)CC(=O)/C=C/c2ccc(O)c(OC)c2)ccc1O,Activity,[6],35%
